Measurements as given in ChEMBL document CHEMBL1150634, “New dimeric macrolide glycosides from the marine sponge Myriastra clavosa” (J Nat Prod, 2002).
Active and inactive are the calls of the source.

Experiments:
Type in all cases: functional, cell-based
NCI-H460 = experiment: Cytotoxicity against human H460 cells at 10 ug/mL after 2 days by XTT assay
K562 = experiment: Cytotoxicity against human K562 cells at 10 ug/mL after 2 days by XTT assay
A549 = experiment: Cytotoxicity against human A549 cells at 10 ug/mL after 2 days by XTT assay
Malme-3M = experiment: Cytotoxicity against human MALME-3M cells at 10 ug/mL after 2 days by XTT assay
LOX = experiment: Cytotoxicity against human LOX cells at 10 ug/mL after 2 days by XTT assay
MOLT-4 = experiment: Cytotoxicity against human MOLT4 cells at 10 ug/mL after 2 days by XTT assay
MCF7 = experiment: Cytotoxicity against human MCF7 cells at 10 ug/mL after 2 days by XTT assay
OVACR3 = experiment: Cytotoxicity against […] at 10 ug/mL after 2 days by XTT assay
COLO 205 = experiment: Cytotoxicity against human COLO205 cells at 10 ug/mL after 2 days by XTT assay
SNB-19 = experiment: Cytotoxicity against human SNB19 cells at 10 ug/mL after 2 days by XTT assay

Measured: Activity

CO[C@@H]1[C@@H](OC)[C@H](O[C@H]2C[C@H]3C[C@@H]([C@H]4C[C@@H]4C)OC(=O)C[C@@H]4O[C@@H](C[C@H](O[C@@H]5OC[C@@H](OC)[C@H](OC)[C@H]5OC)[C@H]4C)C[C@@H]([C@H]4C[C@@H]4C)OC(=O)C[C@H](O3)[C@@H]2C)OC[C@H]1O
inactive: NCI-H460 | K562 | A549 | Malme-3M | LOX | MOLT-4 | MCF7 | OVACR3 | COLO 205 | SNB-19
